The source of these data is patent US20230227405A1, “5-OXOPYRROLIDINE-3-CARBOXAMIDES AS NAV1.8 INHIBITORS” (MERCK SHARP & DOHME CORP., priority 2020, published 2023).

The structures appear in SMILES notation.

T1 sequence (Q9Y5Y9 whole entry): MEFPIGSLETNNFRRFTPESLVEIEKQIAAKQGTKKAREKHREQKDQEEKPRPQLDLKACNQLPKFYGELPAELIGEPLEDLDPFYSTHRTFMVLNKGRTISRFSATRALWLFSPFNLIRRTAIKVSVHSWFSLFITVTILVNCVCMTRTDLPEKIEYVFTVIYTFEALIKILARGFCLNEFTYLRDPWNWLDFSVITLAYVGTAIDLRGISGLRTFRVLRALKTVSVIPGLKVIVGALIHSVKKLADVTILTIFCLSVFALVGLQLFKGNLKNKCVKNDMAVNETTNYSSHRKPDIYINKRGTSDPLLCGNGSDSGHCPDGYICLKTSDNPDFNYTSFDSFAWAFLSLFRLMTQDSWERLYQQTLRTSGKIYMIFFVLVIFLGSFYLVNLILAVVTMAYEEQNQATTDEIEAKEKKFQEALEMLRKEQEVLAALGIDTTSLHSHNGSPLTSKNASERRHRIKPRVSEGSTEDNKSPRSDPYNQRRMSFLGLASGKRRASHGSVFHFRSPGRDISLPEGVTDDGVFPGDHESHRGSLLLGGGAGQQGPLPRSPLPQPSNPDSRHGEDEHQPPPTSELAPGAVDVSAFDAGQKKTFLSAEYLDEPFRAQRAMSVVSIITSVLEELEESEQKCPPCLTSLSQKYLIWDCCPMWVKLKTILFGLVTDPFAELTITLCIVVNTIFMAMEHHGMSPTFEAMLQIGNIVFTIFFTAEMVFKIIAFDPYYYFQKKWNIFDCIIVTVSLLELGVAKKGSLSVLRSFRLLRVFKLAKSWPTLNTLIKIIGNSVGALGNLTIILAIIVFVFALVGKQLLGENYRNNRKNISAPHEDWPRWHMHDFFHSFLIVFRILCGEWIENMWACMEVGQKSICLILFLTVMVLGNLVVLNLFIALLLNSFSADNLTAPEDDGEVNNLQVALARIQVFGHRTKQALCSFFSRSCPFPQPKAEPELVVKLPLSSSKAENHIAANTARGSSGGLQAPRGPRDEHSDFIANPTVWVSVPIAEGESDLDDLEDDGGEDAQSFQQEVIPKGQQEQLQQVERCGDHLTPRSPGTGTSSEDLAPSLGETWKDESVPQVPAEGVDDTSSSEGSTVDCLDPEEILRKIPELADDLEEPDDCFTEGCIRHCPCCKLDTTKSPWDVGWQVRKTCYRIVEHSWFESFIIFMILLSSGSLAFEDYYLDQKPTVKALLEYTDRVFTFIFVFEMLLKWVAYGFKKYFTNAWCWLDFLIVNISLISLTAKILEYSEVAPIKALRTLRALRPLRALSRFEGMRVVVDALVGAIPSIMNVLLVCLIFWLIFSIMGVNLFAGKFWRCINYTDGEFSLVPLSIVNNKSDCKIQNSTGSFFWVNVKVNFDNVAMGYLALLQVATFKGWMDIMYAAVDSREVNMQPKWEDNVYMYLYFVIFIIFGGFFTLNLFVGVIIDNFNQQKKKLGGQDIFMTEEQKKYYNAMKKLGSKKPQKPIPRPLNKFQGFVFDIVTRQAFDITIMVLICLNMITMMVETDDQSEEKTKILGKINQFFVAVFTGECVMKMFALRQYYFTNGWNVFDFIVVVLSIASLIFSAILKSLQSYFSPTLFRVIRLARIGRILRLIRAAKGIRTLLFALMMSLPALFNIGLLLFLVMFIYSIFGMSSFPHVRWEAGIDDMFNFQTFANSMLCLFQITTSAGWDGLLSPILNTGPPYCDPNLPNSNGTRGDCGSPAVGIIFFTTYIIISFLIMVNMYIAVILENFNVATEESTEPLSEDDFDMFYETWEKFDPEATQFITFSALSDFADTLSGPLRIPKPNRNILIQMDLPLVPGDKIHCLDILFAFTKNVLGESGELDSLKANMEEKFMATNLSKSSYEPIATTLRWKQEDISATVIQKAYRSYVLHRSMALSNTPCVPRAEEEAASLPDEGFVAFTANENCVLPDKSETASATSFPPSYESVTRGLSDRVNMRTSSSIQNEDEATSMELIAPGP

The experiment has as its target T1, human Nav1.8 (Homo sapiens, UniProt Q9Y5Y9).
T1 construct: expressed in transfected cells
The experiment is described as follows: Qube® automated patch-clamp assay, Nav1.8. The format is cell-based. To be noted: human Nav1.8 stably expressed in HEK 293 cells; whole-cell voltage clamp, room temperature; read-out: IC50 values (nM) for Examples in the Nav1.8 Qube® Assay. The protocol:
Compounds were tested on human Nav1.8 and Nav1.5 channels stably expressed in human embryo kidney (HEK) 293 cells. Sodium current measurements on Qube® were conducted as follows: automated 384-well patch-clamp assays on the Qube® platform (Sophion Biosciences) were used to measure the inhibition of sodium flow through human Nav1.8 and Nav1.5 channels. Whole-cell voltage-clamp recordings were performed in QChips® (Sophion Biosciences) at room temperature. Nav1.8 current measurements on Qube® were obtained as follows: Nav1.8 currents were elicited with a 10 second 1 Hertz (Hz) pulse train from a holding potential of −90 millivolts (mV), delivered to the cells once per minute in the control condition (DMSO only) and after compound addition. The 1 hertz pulse train stimulation consisted of ten test pulses to 10 millivolt (mV) for 20 milliseconds (ms), each of which was followed by a 980 millisecond repolarization to −67 millivolts. At the end of the 10 second pulse train stimulation, a 5 second hyperpolarization step to −100 millivolt (mV) was used to recover Nav1.8 from fast inactivation. The peak currents elicited by the 1st and 10th test pulses were used to determine IC50 values for resting inhibition and inactivated state inhibition. Nav1.5 current measurements on Qube® were obtained as follows: Nav1.5 currents were elicited with a 20 second 3 Hertz pulse train in the control condition (DMSO only) and after compound addition. The pulse train consisted of sixty 20 millisecond test pulses to 0 millivolt from a holding potential of −80 millivolt (mV). The average peak currents elicited by the last 3 test pulses were used to determine IC50 values for Nav1.5 inhibition.
The following buffers were used for the Qube® recordings: External buffer for Nav1.8 Qube® recording: 150 NaCl, 2 CaCl2, 5 KCl, 1 Mg Cl2, 10 HEPES, 12 Dextrose; External buffer for Qube® Nav1.5 recording: 120 N-Methyl-D-Glucamine, 40 NaCl, 1 KCl, 2.7 CaCl2, 5 HEPES, 0.5 MgCl2; and Internal buffer for Qube® recording: 120 CsF, 30 CsCl, 10 EGTA, 5 HEPES, 5 NaF, 2 MgCl2.
For all Qube® experiments offline analysis was used to determine percent inhibition as a function of drug concentration. IC50 values were determined by fitting to the Hill equation.
On the technique in general: The patch-clamp technique gives a direct electrical read-out from membranes.
As for `O=C1C[C@H](C(=O)NC(c2ccc(Cl)cc2)c2ccc(F)c(Cl)c2)CN1` (mixture of isomers) [Example 1B, (S—N—((R and S)-(3-chloro-4-fluorophenyl)(4-chlorophenyl)methyl)-5-oxopyrrolidine-3-carboxamide], the 50% inhibitory concentration (IC50) is 13 nM.

In the case of `O=C1C[C@H](C(=O)NC(c2ccc(Cl)cc2)c2ccc(F)c(Cl)c2)CN1` (single isomer, unassigned) [Example 1A, (S—N—((R or S)-(3-chloro-4-fluorophenyl)(4-chlorophenyl)methyl)-5-oxopyrrolidine-3-carboxamide], the IC50 came out at 3.4 nM.

For the compound `O=C1C[C@H](C(=O)NC(c2ccc(Cl)cc2)c2ccc(F)c(C(F)(F)F)c2)CN1` (single isomer, unassigned) [Example 11A, (S)-N-((R or S)-(4-chlorophenyl)(4-fluoro-3-(trifluoromethyl)phenyl)methyl)-5-oxopyrrolidine-3-carboxamide], the 50% inhibitory concentration (IC50) came out at 2.6 nM.

For the compound `O=C1C[C@H](C(=O)NC(c2ccc(Cl)cc2)c2ccc(F)c(C(F)(F)F)c2)CN1` (single isomer, unassigned) [Example 11B, (S)-N-((R or S)-(4-chlorophenyl)(4-fluoro-3-(trifluoromethyl)phenyl)methyl)-5-oxopyrrolidine-3-carboxamide], the concentration for half-maximal inhibition (IC50) was 17 nM.

With `O=C1C[C@H](C(=O)NC(c2ccc(Cl)cc2)c2ccc(OC(F)(F)F)cc2)CN1` (single isomer, unassigned) [Example 12A, (S)-N-((R or S)-(4-chlorophenyl)(4-(trifluoromethoxy)phenyl)methyl)-5-oxopyrrolidine-3-carboxamide], the half-inhibitory concentration (IC50) turned out to be 28 nM.

Turning to `O=C1C[C@H](C(=O)NC(c2ccc(Cl)cc2)c2ccc(OC(F)(F)F)cc2)CN1` (single isomer, unassigned) [Example 12B, (S)-N-((R or S)-(4-chlorophenyl)(4-(trifluoromethoxy)phenyl)methyl)-5-oxopyrrolidine-3-carboxamide], the IC50 worked out at 4.1 nM.

`N#Cc1ccc(C(NC(=O)[C@@H]2CNC(=O)C2)c2ccc(F)c(Cl)c2)cc1` (single isomer, unassigned) [Example 13A, (S)-N-((R or S)-(3-chloro-4-fluorophenyl)(4-cyanophenyl)methyl)-5-oxopyrrolidine-3-carboxamide]: the IC50 came out at 139 nM.

Turning to `N#Cc1ccc(C(NC(=O)[C@@H]2CNC(=O)C2)c2ccc(F)c(Cl)c2)cc1` (single isomer, unassigned) [Example 13B, (S)-N-((R or S)-(3-chloro-4-fluorophenyl)(4-cyanophenyl)methyl)-5-oxopyrrolidine-3-carboxamide], the IC50 is 129 nM.

Consider `O=C1C[C@H](C(=O)NC(c2ccc(Cl)cc2)c2ccc(Cl)c(C(F)(F)F)c2)CN1` (single isomer, unassigned) [Example 14A, (S—N—((R or S)-(4-chloro-3-(trifluoromethyl)phenyl)(4-chlorophenyl)methyl)-5-oxopyrrolidine-3-carboxamide], for which the IC50 was 1.2 nM.

For `O=C1C[C@H](C(=O)NC(c2ccc(Cl)cc2)c2ccc(Cl)c(C(F)(F)F)c2)CN1` (single isomer, unassigned) [Example 14B, (S—N—((R or S)-(4-chloro-3-(trifluoro-methyl)phenyl)(4-chlorophenyl)methyl)-5-oxopyrrolidine-3-carboxamide], the IC50 is 9.4 nM.

Take `O=C1C[C@H](C(=O)NC(c2cnc(C(F)(F)F)c(Cl)c2)c2ccc(F)c(Cl)c2F)CN1` (single isomer, unassigned) [Example 15, (S—N—((R or S)-(3-chloro-2,4-difluorophenyl)(5-chloro-6-(trifluoromethyl)pyridin-3-yl)methyl)-5-oxopyrrolidine-3-carboxamide]: the IC50 amounted to 4.2 nM.

For the compound `O=C1C[C@H](C(=O)NC(c2ccc(F)c(Cl)c2F)[C@H]2C[C@H](C(F)(F)F)C2)CN1` (single isomer, unassigned) [Example 16, (S—N—((R or S)-(3-chloro-2,4-difluorophenyl)((trans)-3-(trifluoromethyl)cyclobutyl)methyl)-5-oxopyrrolidine-3-carboxamide], the IC50 is 46 nM.

Take `O=C1C[C@H](C(=O)NC(c2ccc(C(F)(F)F)cc2)c2ccc(F)c(Cl)c2)CN1` (single isomer, unassigned) [Example 17, (S—N—((R or S)-(3-chloro-4-fluorophenyl)(4-(trifluoromethyl)phenyl)methyl)-5-oxopyrrolidine-3-carboxamide]: the concentration for half-maximal inhibition (IC50) was 11 nM.

`O=C1C[C@H](C(=O)NC(c2ccc(OC(F)(F)F)cc2)c2cccc(Cl)c2)CN1` (single isomer, unassigned) [Example 19A, (S)-N-((R or S)-(3-chlorophenyl)(4-(trifluoromethoxy)phenyl)methyl)-5-oxopyrrolidine-3-carboxamide]: the IC50 was 16 nM.

Turning to `O=C1C[C@H](C(=O)NC(c2ccc(OC(F)(F)F)cc2)c2cccc(Cl)c2)CN1` (single isomer, unassigned) [Example 19B, (S)-N-((R or S)-(3-chlorophenyl)(4-(trifluoromethoxy)phenyl)methyl)-5-oxopyrrolidine-3-carboxamide], the 50% inhibitory concentration (IC50) turned out to be 17 nM.

With `O=C1C[C@H](C(=O)NC(c2ccc(F)c(Cl)c2)c2ccc(Cl)c(C(F)(F)F)n2)CN1` (single isomer, unassigned) [Example 20A, (S)-N-((R or S)-(3-chloro-4-fluorophenyl)(5-chloro-6-(trifluoromethyl)-pyridin-2-yl)methyl)-5-oxopyrrolidine-3-carboxamide], the IC50 was determined as 51 nM.

On to `O=C1C[C@H](C(=O)NC(c2ccc(F)c(Cl)c2)c2ccc(Cl)c(C(F)(F)F)n2)CN1` (single isomer, unassigned) [Example 20B, (S)-N-((R or S)-(3-chloro-4-fluorophenyl)(5-chloro-6-(trifluoromethyl)-pyridin-2-yl)methyl)-5-oxopyrrolidine-3-carboxamide], for which the concentration for half-maximal inhibition (IC50) came out at 2.9 nM.

`CC1(C)CC(C(NC(=O)[C@@H]2CNC(=O)C2)c2ccc(F)c(Cl)c2F)C1` (single isomer, unassigned) [Example 21A, (S—N—((R or S)-(3-chloro-2,4-difluorophenyl)(3,3-dimethylcyclobutyl)methyl)-5-oxopyrrolidine-3-carboxamide]: the 50% inhibitory concentration (IC50) is 2220 nM.

Consider `CC1(C)CC(C(NC(=O)[C@@H]2CNC(=O)C2)c2ccc(F)c(Cl)c2F)C1` (single isomer, unassigned) [Example 21B, (S—N—((R or S)-(3-chloro-2,4-difluorophenyl)(3,3-dimethylcyclobutyl)methyl)-5-oxopyrrolidine-3-carboxamide], for which the IC50 came out at 17 nM.

For `CC1C(=O)NCC1C(=O)NC(c1ccc(Cl)cc1)c1ccc(Cl)cc1` (single isomer, unassigned) [Example 27A, (3(R or S),4(R or S)—N-(bis(4-chlorophenyl)methyl)-4-methyl-5-oxopyrrolidine-3-carboxamide], the concentration for half-maximal inhibition (IC50) stood at 7460 nM.

As to `CC1C(=O)NCC1C(=O)NC(c1ccc(Cl)cc1)c1ccc(Cl)cc1` (single isomer, unassigned) [Example 27B, (3(R or S),4(R or S)—N-(bis(4-chlorophenyl)methyl)-4-methyl-5-oxopyrrolidine-3-carboxamide], the IC50 came out at 277 nM.

Take `CC1C(=O)NCC1C(=O)NC(c1ccc(Cl)cc1)c1ccc(Cl)cc1` (single isomer, unassigned) [Example 27C, (3(R or S),4(R or S)—N-(bis(4-chlorophenyl)methyl)-4-methyl-5-oxopyrrolidine-3-carboxamide]: the IC50 amounted to 3480 nM.

For `CC1C(=O)NCC1C(=O)NC(c1ccc(Cl)cc1)c1ccc(Cl)cc1` (single isomer, unassigned) [Example 27D, (3(R or S),4(R or S)—N-(bis(4-chlorophenyl)methyl)-4-methyl-5-oxopyrrolidine-3-carboxamide], the IC50 amounted to 7650 nM.

For `N#Cc1cccc(C(NC(=O)[C@@H]2CNC(=O)C2)c2cccc(Cl)c2)c1` (stereo partly drawn) [Example 2, (3S)-N-((3-chlorophenyl)(3-cyanophenyl)methyl)-5-oxopyrrolidine-3-carboxamide], the half-maximal inhibitory concentration (IC50) was 820 nM.

Turning to `O=C1C[C@H](C(=O)NC(c2ccc(Cl)cc2)c2ccc(C3CC3)cc2)CN1` (stereo partly drawn) [Example 3, (3S)-N-((4-chlorophenyl)(4-cyclopropylphenyl)methyl)-5-oxopyrrolidine-3-carboxamide], the IC50 was determined as 186 nM.

Take `CC(C)c1ccc(C(NC(=O)[C@@H]2CNC(=O)C2)c2ccc(Cl)cc2)cc1` (stereo partly drawn) [Example 4, (3S)-N-((4-chlorophenyl)(4-isopropylphenyl)methyl)-5-oxopyrrolidine-3-carboxamide]: the IC50 came out at 108 nM.

The term IC50 denotes the midpoint of a concentration-inhibition curve.
